Measurements: patent US20240383886A1, “Protein Tyrosine Phosphatase Degraders and Methods of Use Thereof” (CALICO LIFE SCIENCES LLC, priority 2019, published 2024)

Legend:
PTPN2 [1] = biological target: T1, PTPN2 (Homo sapiens, UniProt P17706); assay: HiBiT-Degradation 293T.109 PTPN2 (Nano-Glo HiBiT Lytic Assay); format: cell-based; details: 293T.109 (HiBiT-PTPN2) cells, 24.0 hours
T1 construct: expressed in transfected cells; host or cells: 293T (293T.109 HiBiT-PTPN2 line; parental 293T WT from ATCC)
T1 sequence (P17706 1-415): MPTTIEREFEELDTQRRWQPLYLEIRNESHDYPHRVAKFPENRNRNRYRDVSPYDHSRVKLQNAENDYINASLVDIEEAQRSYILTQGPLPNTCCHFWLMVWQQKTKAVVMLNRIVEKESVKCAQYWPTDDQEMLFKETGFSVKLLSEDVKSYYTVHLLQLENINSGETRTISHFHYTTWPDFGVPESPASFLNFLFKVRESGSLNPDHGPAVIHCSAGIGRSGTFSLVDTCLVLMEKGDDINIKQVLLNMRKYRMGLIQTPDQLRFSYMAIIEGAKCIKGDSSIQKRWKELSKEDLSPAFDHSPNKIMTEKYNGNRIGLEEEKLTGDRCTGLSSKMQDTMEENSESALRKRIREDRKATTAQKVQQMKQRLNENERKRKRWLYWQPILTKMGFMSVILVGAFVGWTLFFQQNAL
How it was run: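 293T cells ectopically expressing N-terminally HiBiT-tagged PTPN2 were seeded at 5000 cells/well. They were treated with an 11-point half-log titration from 10 μM, in duplicate, for 24 hours at 37° C., 5% CO2. Remaining tagged PTPN2 was quantified by lytic HiBiT luminescence against untreated and no-reagent controls.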

PTPN2 [2] = assay: HiBiT-Degradation B16F10.4 PTPN2; format: cell-based; details: B16F10.4 cells, 24.0 hours

Structure (SMILES) | DC50 (PTPN2 [1]) [nM] | DC50 (PTPN2 [2]) [nM]
Cn1c(=O)n(C2CCC(=O)NC2=O)c2ccc(-c3ccc(CNCC(C)(C)CCOc4ccc5cc(O)c(N6CC(=O)NS6(=O)=O)c(F)c5c4)cc3)cc21 (stereo not drawn) [Example 153, 3-[5-[4-[[[4-[[8-fluoro-6-hydroxy-7-(1,1,4-trioxo-1,2,5-thiadiazolidin-2-yl)-2-naphthyl]oxy]-2,2-dimethyl-butyl]amino]methyl]phenyl]-3-methyl-2-oxo-benzimidazol-1-yl]piperidine-2,6-dione] | 50 to 200 | 200 to 1000
Cn1c(=O)n(C2CCC(=O)NC2=O)c2ccc(C3CCN(Cc4ccn(-c5ccc6c(F)c(N7CC(=O)NS7(=O)=O)c(O)cc6c5)n4)CC3)cc21 (stereo not drawn) [Example 154, 3-(5-(1-((1-(6-(1,1-dioxido-4-oxo-1,2,5-thiadiazolidin-2-yl)-5-fluoro-7-hydroxynaphthalen-2-yl)-1H-pyrazol-3-yl)methyl)piperidin-4-yl)-3-methyl-2-oxo-2,3-dihydro-1H-benzo[d]imidazol-1-yl)piperidine-2,6-dione] | 200 to 1000 | ≥ 1000
Cn1c(=O)n(C2CCC(=O)NC2=O)c2ccc(N3CCC(O)(CC(=O)N4CC[C@@H](COc5ccc6cc(O)c(N7CC(=O)NS7(=O)=O)c(F)c6c5)C4)CC3)cc21 (stereo partly drawn) [Example 155, 3-[5-[4-[2-[(3R)-3-[[8-fluoro-6-hydroxy-7-(1,1,4-trioxo-1,2,5-thiadiazolidin-2-yl)-2-naphthyl]oxymethyl]pyrrolidin-1-yl]-2-oxo-ethyl]-4-hydroxy-1-piperidyl]-3-methyl-2-oxo-benzimidazol-1-yl]piperidine-2,6-dione] | 50 to 200 | 200 to 1000
Cn1c(=O)n(C2CCC(=O)NC2=O)c2ccc(N3CCN(CC(=O)Nc4ccc5c(F)c(N6CC(=O)NS6(=O)=O)c(O)cc5c4)CC3)cc21 (stereo not drawn) [Example 159, 2-[4-[1-(2,6-dioxo-3-piperidyl)-3-methyl-2-oxo-benzimidazol-5-yl]piperazin-1-yl]-N-[5-fluoro-7-hydroxy-6-(1,1,4-trioxo-1,2,5-thiadiazolidin-2-yl)-2-naphthyl]acetamide] | 50 to 200 | 50 to 200
Cn1c(=O)n(C2CCC(=O)NC2=O)c2ccc(C3CN(CC(=O)NCCOc4ccc5cc(O)c(N6CC(=O)NS6(=O)=O)c(F)c5c4)C3)cc21 (stereo not drawn) [Example 161, 2-[3-[1-(2,6-dioxo-3-piperidyl)-3-methyl-2-oxo-benzimidazol-5-yl]azetidin-1-yl]-N-[2-[[8-fluoro-6-hydroxy-7-(1,1,4-trioxo-1,2,5-thiadiazolidin-2-yl)-2-naphthyl]oxy]ethyl]acetamide] | 200 to 1000 | 200 to 1000
CN(CCOc1ccc2cc(O)c(N3CC(=O)NS3(=O)=O)c(F)c2c1)C(=O)CNCCCc1ccc2c3c(cccc13)C(=O)N2C1CCC(=O)NC1=O (stereo not drawn) [Example 166, N-(2-((7-(1,1-dioxido-4-oxo-1,2,5-thiadiazolidin-2-yl)-8-fluoro-6-hydroxynaphthalen-2-yl)oxy)ethyl)-2-((3-(1-(2,6-dioxopiperidin-3-yl)-2-oxo-1,2-dihydrobenzo[cd]indol-6-yl)propyl)amino)-N-methylacetamide] | 50 to 200 | 200 to 1000
Cn1nc(C2CCC(=O)NC2=O)c2ccc(N3CCC(CC(=O)Nc4ccc5c(F)c(N6CC(=O)NS6(=O)=O)c(O)cc5c4)CC3)cc21 (stereo not drawn) [Example 167, 2-[1-[3-(2,6-dioxo-3-piperidyl)-1-methyl-indazol-6-yl]-4-piperidyl]-N-[5-fluoro-7-hydroxy-6-(1,1,4-trioxo-1,2,5-thiadiazolidin-2-yl)-2-naphthyl]acetamide] | 50 to 200 | 50 to 200
Cn1c(=O)n(C2CCC(=O)NC2=O)c2ccc(Nc3ccc(CC(=O)Nc4ccc5c(F)c(N6CC(=O)NS6(=O)=O)c(O)cc5c4)cn3)cc21 (stereo not drawn) [Example 168, N-(6-(1,1-dioxido-4-oxo-1,2,5-thiadiazolidin-2-yl)-5-fluoro-7-hydroxynaphthalen-2-yl)-2-(6-((1-(2,6-dioxopiperidin-3-yl)-3-methyl-2-oxo-2,3-dihydro-1H-benzo[d]imidazol-5-yl)amino)pyridin-3-yl)acetamide] | 50 to 200 | 10 to 50

Other lines, results leading:

DC50 (PTPN2 [1]) [nM] | DC50 (PTPN2 [2]) [nM] | Structure (SMILES)
50 to 200 | ≥ 1000 | Cn1c(=O)n(C2CCC(=O)NC2=O)c2ccc(-c3ccc(NCC(C)(C)CCOc4ccc5cc(O)c(N6CC(=O)NS6(=O)=O)c(F)c5c4)cc3)cc21 (stereo not drawn) [Example 151, 3-[5-[4-[[4-[[8-fluoro-6-hydroxy-7-(1,1,4-trioxo-1,2,5-thiadiazolidin-2-yl)-2-naphthyl]oxy]-2,2-dimethyl-butyl]amino]phenyl]-3-methyl-2-oxo-benzimidazol-1-yl]piperidine-2,6-dione]
10 to 50 | 200 to 1000 | Cn1nc(C2CCC(=O)NC2=O)c2ccc(C3CCN(CCn4cc(-c5ccc6c(F)c(N7CC(=O)NS7(=O)=O)c(O)cc6c5)cn4)CC3)cc21 (stereo not drawn) [Example 152, 3-[6-[1-[2-[4-[5-fluoro-7-hydroxy-6-(1,1,4-trioxo-1,2,5-thiadiazolidin-2-yl)-2-naphthyl]pyrazol-1-yl]ethyl]-4-piperidyl]-1-methyl-indazol-3-yl]piperidine-2,6-dione]
10 to 50 | 200 to 1000 | Cn1c(=O)n(C2CCC(=O)NC2=O)c2ccc(C3CCN(CC(=O)N4CCN(c5ccc6cc(O)c(N7CC(=O)NS7(=O)=O)c(F)c6c5)CC4)CC3)cc21 (stereo not drawn) [Example 156, 3-[5-[1-[2-[4-[8-fluoro-6-hydroxy-7-(1,1,4-trioxo-1,2,5-thiadiazolidin-2-yl)-2-naphthyl]piperazin-1-yl]-2-oxo-ethyl]-4-piperidyl]-3-methyl-2-oxo-benzimidazol-1-yl]piperidine-2,6-dione]
10 to 50 | 50 to 200 | Cn1c(=O)n(C2CCC(=O)NC2=O)c2ccc(C3CCN(CC(C)(C)CCOc4ccc5cc(O)c(N6CC(=O)NS6(=O)=O)c(F)c5c4)CC3)cc21 (stereo not drawn) [Example 157, 3-[5-[1-[4-[[8-fluoro-6-hydroxy-7-(1,1,4-trioxo-1,2,5-thiadiazolidin-2-yl)-2-naphthyl]oxy]-2,2-dimethyl-butyl]-4-piperidyl]-3-methyl-2-oxo-benzimidazol-1-yl]piperidine-2,6-dione]
10 to 50 | 50 to 200 | O=C1CCC(N2C(=O)c3cccc4c(C5CCN(CC(=O)N6CC(Oc7ccc8cc(O)c(N9CC(=O)NS9(=O)=O)c(F)c8c7)C6)CC5)ccc2c34)C(=O)N1 (stereo not drawn) [Example 158, 3-[6-[1-[2-[3-[[8-fluoro-6-hydroxy-7-(1,1,4-trioxo-1,2,5-thiadiazolidin-2-yl)-2-naphthyl]oxy]azetidin-1-yl]-2-oxo-ethyl]-4-piperidyl]-2-oxo-benzo[cd]indol-1-yl]piperidine-2,6-dione]
10 to 50 | 200 to 1000 | Cn1c(=O)n(C2CCC(=O)NC2=O)c2ccc(C3CN(CC(=O)Nc4ccc5c(F)c(N6CC(=O)NS6(=O)=O)c(O)cc5c4)C3)cc21 (stereo not drawn) [Example 160, 2-[3-[1-(2,6-dioxo-3-piperidyl)-3-methyl-2-oxo-benzimidazol-5-yl]azetidin-1-yl]-N-[5-fluoro-7-hydroxy-6-(1,1,4-trioxo-1,2,5-thiadiazolidin-2-yl)-2-naphthyl]acetamide]
10 to 50 | 50 to 200 | Cn1c(=O)n(C2CCC(=O)NC2=O)c2ccc(C3CCN(CC(=O)N4CC[C@@H](COc5ccc6cc(O)c(N7CC(=O)NS7(=O)=O)c(F)c6c5)C4)CC3(F)F)cc21 (stereo partly drawn) [Example 162, 3-[5-[3,3-difluoro-1-[2-[(3R)-3-[[8-fluoro-6-hydroxy-7-(1,1,4-trioxo-1,2,5-thiadiazolidin-2-yl)-2-naphthyl]oxymethyl]pyrrolidin-1-yl]-2-oxo-ethyl]-4-piperidyl]-3-methyl-2-oxo-benzimidazol-1-yl]piperidine-2,6-dione]
10 to 50 | 10 to 50 | Cn1nc([C@@H]2CCC(=O)NC2=O)c2ccc(N3CCC(CC(=O)Nc4ccc5c(F)c(N6CC(=O)NS6(=O)=O)c(O)cc5c4)CC3)cc21 [Example 163, 2-[1-[3-[(3S)-2,6-dioxo-3-piperidyl]-1-methyl-indazol-6-yl]-4-piperidyl]-N-[5-fluoro-7-hydroxy-6-(1,1,4-trioxo-1,2,5-thiadiazolidin-2-yl)-2-naphthyl]acetamide]
10 to 50 | 50 to 200 | Cn1nc([C@H]2CCC(=O)NC2=O)c2ccc(N3CCC(CC(=O)Nc4ccc5c(F)c(N6CC(=O)NS6(=O)=O)c(O)cc5c4)CC3)cc21 [Example 164, 2-[1-[3-[(3R)-2,6-dioxo-3-piperidyl]-1-methyl-indazol-6-yl]-4-piperidyl]-N-[5-fluoro-7-hydroxy-6-(1,1,4-trioxo-1,2,5-thiadiazolidin-2-yl)-2-naphthyl]acetamide]
10 to 50 | 50 to 200 | O=C1CCC(N2C(=O)c3cccc4c(C5CCN(CC(=O)N6CC(Oc7ccc8cc(O)c(N9CC(=O)NS9(=O)=O)c(F)c8c7)C6)CC5(F)F)ccc2c34)C(=O)N1 (stereo not drawn) [Example 165, 3-[6-[3,3-difluoro-1-[2-[3-[[8-fluoro-6-hydroxy-7-(1,1,4-trioxo-1,2,5-thiadiazolidin-2-yl)-2-naphthyl]oxy]azetidin-1-yl]-2-oxo-ethyl]-4-piperidyl]-2-oxo-benzo[cd]indol-1-yl]piperidine-2,6-dione]
